One data set relates to dog faecal homogenates. Description: In vitro conversion of amphetamine prodrugs to amphetamine in dog faecal homogenates. It counts as in vitro ADME. As to conditions: dog faecal homogenate, prodrug 10 μM, anaerobic, 37° C.; for Amphetamine C0: time 0; for Amphetamine C6: 6 hours; for Amphetamine C24: 24 hours. The procedure:
(§1) Frozen samples were stored at −70° C. prior to analysis for the parent drug and pro-drug using a qualified LC-MS-MS assay.

Another data set has as its system human faecal homogenates. Put plainly: In vitro conversion of amphetamine prodrugs to amphetamine in human faecal homogenates. It counts as in vitro ADME. The settings on record: for Amphetamine C0 / Amphetamine C6 / Amphetamine C24: human faecal homogenate, prodrug 10 μM, anaerobic, 37° C.; for Amphetamine C0: time 0; for conversion to the active by the microflora: summary of Table 4 incubations (dog, monkey, human faecal homogenates, rat caecal contents); for conversion to the active, human compared to dog faecal homogenates: human vs dog faecal homogenates; for Amphetamine C6: 6 hours; for Amphetamine C24: 24 hours. The procedure:
as §1

The subject of data set [1] is faecal homogenates prepared from three subjects. Put plainly: Interindividual variability in amphetamine generation in human fecal homogenates (Example 25). As to conditions: 100 μM, anaerobic, 37° C., up to 6 hours.
Data set [2] is described as follows: Pharmacokinetics of prodrug and amphetamine after oral dosing to male cynomolgus monkeys (Example 21). As to conditions: cynomolgus monkey.
Data set [3] can be described thus: Pharmacokinetics of amphetamine after oral dosing of d-amphetamine or Compound 1, or intranasal dosing of Compound 1, to male dogs (Example 23).
Data set [4] deals with monkey faecal homogenates. Put plainly: In vitro conversion of amphetamine prodrugs to amphetamine in monkey faecal homogenates. It is filed as in vitro ADME. As to conditions: monkey faecal homogenate, prodrug 10 μM, anaerobic, 37° C., time 0. How it is done: as §1
Data set [5] is described as follows: Pharmacokinetics of prodrug and amphetamine after oral dosing to male dogs (Example 20). As to conditions: for AUC / Tmax: male, dog, in vivo, po, 0.5 mg; for absorption of prodrug in the upper gastrointestinal tract: male dogs, oral gavage of prodrug.
Data set [6] in a line: Pharmacokinetics of prodrug and amphetamine after intravenous dosing to male cynomolgus monkeys (Example 22).

“Also recorded” adds a separate entry of the source.

Turning to `C[C@@H](Cc1ccccc1)NC(=O)[C@@H](C)O[C@H]1[C@H](O)[C@@H](CO)OC(O)[C@@H]1N` (mixture of isomers) [Compound 4, (2R)-2-(((3R,4R,5S,6R)-3-amino-2,5-dihydroxy-6-(hydroxymethyl)tetrahydro-2H-pyran-4-yl)oxy)-N-((S)-1-phenylpropan-2-yl)propanamide], the “Amphetamine C0” value in the data set with dog faecal homogenates and in the data set on human faecal homogenates was “BLQ” throughout.
Regarding `CC(=O)N[C@H]1C(O)O[C@H](CO)[C@H](O)C1O[C@H](C)C(=O)N[C@@H](C)Cc1ccccc1` (stereo partly drawn) [Compound 1, (2R)-2-(((3R,4R,5R,6R)-3-acetamido-2,5-dihydroxy-6-(hydroxymethyl)tetrahydro-2H-pyran-4-yl)oxy)-N-((S)-1-phenylpropan-2-yl)propanamide], the “variability of amphetamine generation between subjects” value in data set [1] is recorded as “relatively modest variability”. In data set [2] (in vivo, 0.5 mg), the AUC turned out to be 187 ng·h/mL and the time of peak concentration (Tmax) stood at 1.1 h. Also, in data set [3] (4 mg intranasal vs 4 mg po), the “exposure to amphetamine, intranasal compared with oral administration of the prodrug” value is “less than that observed following oral administration of the prodrug”. Moreover, the “onset of amphetamine appearance in the systemic circulation” value in data set [3] (intranasal) is “did not enhance the onset”. Further, the “Amphetamine C0” value in data set [4] is recorded as “BLQ”. In the data set on human faecal homogenates, the “conversion to the active by the microflora” value is reported as “efficient conversion”. Moreover, in data set [5], the exposure (AUC) stood at 354 ng·h/mL and the Tmax came to 1 h. Also, the “conversion to the active amphetamine following systemic exposure” value in data set [6] was “no significant quantities”. Moreover, the “amphetamine levels where detected (one time point between 4 and 8 hours)” value in data set [6] (0.2 mg d-amphetamine free base equivalents/kg) is listed as “near the limit of quantification”.
For the compound `C[C@@H](Cc1ccccc1)NC(=O)[C@H](O)[C@@H](O)[C@H](O[C@@H]1O[C@H](CO)[C@H](O)[C@H](O)[C@H]1O)[C@H](O)CO` [Compound 5, (2R,3R,4R,5R)-2,3,5,6-tetrahydroxy-N-((S)-1-phenylpropan-2-yl)-4-(((2S,3R,4S,5R,6R)-3,4,5-trihydroxy-6-(hydroxymethyl)tetrahydro-2H-pyran-2-yl)oxy)hexanamide], in the data set on human faecal homogenates, the “conversion to the active, human compared to dog faecal homogenates” value is “greater activity in human in vitro studies; also recorded: higher in human compared to dog faecal homogenates” and the “conversion to the active by the microflora” value was “efficient conversion”.
For `C[C@@H](Cc1ccccc1)NC(=O)[C@H](O)[C@@H](O)[C@H](O)[C@H](O)CO` [Compound 6, (2R,3S,4R,5R)-2,3,4,5,6-pentahydroxy-N-((S)-1-phenylpropan-2-yl)hexanamide], the “Amphetamine C0” value with dog faecal homogenates and in the data set on human faecal homogenates was “BLQ” in each case. Also, the “absorption of prodrug in the upper gastrointestinal tract” value in data set [5] is given as “high absorption”.
In the case of `C[C@@H](Cc1ccccc1)NC(=O)[C@@H](C)OC(=O)N[C@H]1C(O)O[C@H](CO)[C@@H](O)[C@@H]1O` (stereo partly drawn) [Compound 8, (1R)-1-{[(2S)-1-Phenylpropan-2-yl]carbamoyl}ethyl N-[(3R,4R,5S,6R)-2,4,5-trihydroxy-6-(hydroxymethyl)oxan-3-yl]carbamate], in the data set on dog faecal homogenates, the “Amphetamine C6” value is “BLQ”, the “Amphetamine C24” value is listed as “BLQ” and the “Amphetamine C0” value is on record as “BLQ”. Further, in the data set on human faecal homogenates, the “Amphetamine C6” value is given as “BLQ”, the “Amphetamine C24” value is recorded as “BLQ” and the “Amphetamine C0” value is “BLQ”.
On to `CCO[C@H]1O[C@H](CO)[C@@H](O)[C@H](O)[C@H]1NNC(C)Cc1ccccc1` (stereo partly drawn) [Compound 9, (2R,3S,4R,5R,6S)-6-Ethoxy-2-(hydroxymethyl)-5-[2-(1-phenylpropan-2-yl)hydrazin-1-yl]oxane-3,4-diol], for which, in data set [5], the “absorption of prodrug in the upper gastrointestinal tract” value was “high absorption”.
Same read-out and setting: for `CO[C@H]1O[C@H](CO)[C@@H](O)[C@H](O)[C@H]1NNC(C)Cc1ccccc1` (stereo partly drawn) [Compound 10, (2R,3S,4R,5R,6S)-6-Methoxy-2-(hydroxymethyl)-5-[2-(1-phenylpropan-2-yl)hydrazin-1-yl]oxane-3,4-diol] the value was “high absorption”.
Turning to `CC(=O)N[C@@H]1CO[C@H](CO)[C@@H](O)[C@@H]1O[C@H](C)C(=O)N[C@@H](C)Cc1ccccc1` [Compound 11, (R)-2-(((2R,3S,4R,5R)-5-Acetamido-3-hydroxy-2-(hydroxymethyl)tetrahydro-2H-pyran-4-yl)oxy)-N-((S)-1-phenylpropan-2-yl)propanamide], in the data set on dog faecal homogenates, the “Amphetamine C6” value is “BLQ”, the “Amphetamine C24” value was “BLQ” and the “Amphetamine C0” value was “BLQ”. Moreover, in the data set on human faecal homogenates, the “Amphetamine C6” value was “BLQ”, the “Amphetamine C24” value was “BLQ” and the “Amphetamine C0” value was “BLQ”.
In the case of `C[C@@H](Cc1ccccc1)NC(=O)[C@@H](C)O[C@H]1[C@H](O)[C@@H](CO)OC[C@H]1N` [Compound 12, (R)-2-(((2R,3S,4R,5R)-5-Amino-3-hydroxy-2-(hydroxymethyl)tetrahydro-2H-pyran-4-yl)oxy)-N-((S)-1-phenylpropan-2-yl)propanamide], in the data set on dog faecal homogenates, the “Amphetamine C6” value is “BLQ”, the “Amphetamine C24” value was “BLQ” and the “Amphetamine C0” value was “BLQ”. Also, in the data set with human faecal homogenates, the “Amphetamine C6” value was “BLQ”, the “Amphetamine C24” value is “BLQ” and the “Amphetamine C0” value was “BLQ”.
On to `CC(=O)N[C@@H](C=O)[C@@H](O[C@H](C)C(=O)N[C@H](C)Cc1ccccc1)[C@H](O)[C@H](O)CO` [Compound 13, (2R)-2-{[(2R,3R,4R,5R)-2-Acetamido-4,5,6-trihydroxy-1-oxohexan-3-yl]oxy}-N-[(2R)-1-phenylpropan-2-yl]propanamide], for which, in the data set with human faecal homogenates, the “Amphetamine C0” value is “BLQ” and the “conversion to the active by the microflora” value is “efficient conversion”. Further, in data set [5], the area under the curve (AUC) was 564 ng·h/mL and the Tmax was determined as 0.75 h.
For `CC(=O)N[C@H]1C(O)O[C@H](CO)[C@@H](O)[C@@H]1O[C@@H](C)C(=O)N[C@@H](C)Cc1ccccc1` (stereo partly drawn) [Compound 14, (2S)-2-(((3R,4R,5S,6R)-3-Acetamido-2,5-dihydroxy-6-(hydroxymethyl)tetrahydro-2H-pyran-4-yl)oxy)-N-((S)-1-phenylpropan-2-yl)propanamide], in the data set with dog faecal homogenates, the “Amphetamine C0” value is “BLQ”. Besides, in the data set on human faecal homogenates, the “Amphetamine C6” value is given as “BLQ”, the “Amphetamine C24” value is recorded as “BLQ” and the “Amphetamine C0” value is “BLQ”.
For the compound `CC(=O)N[C@H]1C(O)O[C@H](CO)[C@@H](O)[C@@H]1OCC(=O)N[C@@H](C)Cc1ccccc1` (stereo partly drawn) [Compound 15, 2-(((3R,4R,5S,6R)-3-acetamido-2,5-dihydroxy-6-(hydroxymethyl)tetrahydro-2H-pyran-4-yl)oxy)-N-((S)-1-phenylpropan-2-yl)acetamide], the “Amphetamine C0” value in the data set on dog faecal homogenates and in the data set with human faecal homogenates was “BLQ” each time.
On to `CCC(=O)N[C@H]1C(O)O[C@H](CO)[C@@H](O)[C@@H]1O[C@H](C)C(=O)N[C@@H](C)Cc1ccccc1` (stereo partly drawn) [Compound 16, (2R)-2-[(3R,4R,5S)-2,5-dihydroxy-6-(hydroxymethyl)-3-(propanoylamino)tetrahydropyran-4-yl]oxy-N-[(1S)-1-methyl-2-phenyl-ethyl]propanamide], for which, in the data set with dog faecal homogenates, the “Amphetamine C0” value was “BLQ”. In addition, in the data set with human faecal homogenates, the “Amphetamine C0” value is listed as “BLQ” and the “conversion to the active by the microflora” value was “efficient conversion”. In addition, in data set [5], the exposure (AUC) came out at 273 ng·h/mL and the time to peak (Tmax) was 0.5 h.
Turning to `CC(=O)N[C@H]1[C@@H]2OC[C@@H](O2)[C@@H](O)[C@@H]1O[C@H](C)C(=O)N[C@H](C)Cc1ccccc1` [Compound 17, (2R)-2-[[(2S,3R,4R)-4-acetamido-2-hydroxy-6,8-dioxabicyclo[3.2.1]octan-3-yl]oxy]-N-[(1R)-1-methyl-2-phenyl-ethyl]propanamide], the “Amphetamine C0” value in the data set with dog faecal homogenates was “BLQ”. Moreover, in the data set on human faecal homogenates, the “Amphetamine C0” value is given as “BLQ”; the “conversion to the active, human compared to dog faecal homogenates” value is listed as “greater activity in human in vitro studies; also recorded: higher in human compared to dog faecal homogenates”; the “conversion to the active by the microflora” value is “efficient conversion”. In addition, in data set [5], the AUC was 213 ng·h/mL and the Tmax is 0.5 h.
For the compound `CC(C)C(=O)N[C@@H](C=O)[C@@H](O[C@H](C)C(=O)N[C@@H](C)Cc1ccccc1)[C@H](O)[C@H](O)CO` [Compound 18, N-((2R,3R,4R,5R)-4,5,6-trihydroxy-1-oxo-3-(((R)-1-oxo-1-(((S)-1-phenylpropan-2-yl)amino)propan-2-yl)oxy)hexan-2-yl)isobutyramide], the “Amphetamine C0” value in the data set on dog faecal homogenates and in the data set with human faecal homogenates was “BLQ” throughout.
Regarding `CCCCCCCC(=O)N[C@@H](C=O)[C@@H](O[C@H](C)C(=O)N[C@@H](C)Cc1ccccc1)[C@H](O)[C@H](O)CO` [Compound 19, N-((2R,3R,4R,5R)-4,5,6-trihydroxy-1-oxo-3-(((R)-1-oxo-1-(((S)-1-phenylpropan-2-yl)amino)propan-2-yl)oxy)hexan-2-yl)octanamide], the “Amphetamine C0” value in the data set with dog faecal homogenates is reported as “BLQ”. Moreover, in the data set on human faecal homogenates, the “Amphetamine C6” value is listed as “BLQ” and the “Amphetamine C0” value is given as “BLQ”.
For `C[C@H](N)Cc1ccccc1` [d-Amphetamine, d-amphetamine], in data set [2] (in vivo, 1 mg/kg), the Tmax is not above 1 h. Moreover, in data set [2] (plasma, 1 mg/kg), the AUC turned out to be 4440 ng·h/mL and the Tmax was found to be 2.4 h.

Usually AUC stands for concentration integrated over time. In general, Tmax refers to the time from dosing to the highest level.
